Assay results: patent publication US20090214529A9, “KINESIN INHIBITORS” (TaiGen Biotechnology Co., Ltd., priority 2007, published 2009)

System: tumor cell
Experiment: Cytotoxicity assay (MTS)
Type: cell-based
Settings: 72 h; incubation for three days; read-out: IC50, tumor cell growth inhibition (MTS)
Description: The efficacy of a test compound in inhibiting tumor cell growth was analyzed using a MTS assay. The MTS assay is a calorimetric method for the determination of viable cells in proliferation by using a tetrazolium compound (3-(4,5-dimethylthiazol-2-yl)-5-(3-[…])-2-(4-sulfophenyl)-2H-tetrazolium, inner salt; MTS) and an electron-coupling agent (phenazine methosulfate; PMS). The MTS reagent is converted by dehydrogenase enzymes in metabolically active cells into a formazan that is soluble in a tissue culture medium.
In this assay, tumor cell suspensions (30 μl/well) were seeded into 384-well flat-bottomed tissue culture plates at an appropriate density overnight. A fresh medium (3 μl/well) containing varying concentrations of a test compound or vehicle was added to the culture followed by incubation for three days. At the end of the incubation, all plates were processed simultaneously as follows: The culture medium was aspirated, a MTS cell proliferation assay (Promega) solution (30 μl/well) was added, and the plates were incubated at 37° C. for about 2 hours. Absorbance (a parameter proportional to the cell mass) was measured at 490 nm using a Multiskan (Thermo Electron Corporation, Waltham, Mass.). Inhibition effects were expressed as corrected T/C values for each test compound according to the following equation:
T/C=(T−Blank)/(C−Blank)×100(%),
where T is the mean absorbance of the treated cells, C is the mean absorbance of the controls, and Blank is the mean absorbance of the cell free well.

SMILES | IC50
Cc1ccc(C(=O)N(CCN)C(c2nc3c(oc4ccc(Br)cc43)c(=O)n2Cc2ccccc2)C(C)C)cn1 (stereo not drawn) [Compound 59] | < 30 µM
Cc1ccc(C(=O)N(CCN)C(c2nc3c(oc4cccc(F)c43)c(=O)n2Cc2ccccc2)C(C)C)cc1 (stereo not drawn) [Compound 60] | < 30 µM
Cc1ccc(C(=O)N(CCCN)C(c2nc3c(oc4cccc(F)c43)c(=O)n2Cc2ccccc2)C(C)C)cc1 (stereo not drawn) [Compound 61] | < 30 µM
Cc1ccc(C(=O)N(CCCN)C(c2nc3c(oc4ccc(F)cc43)c(=O)n2Cc2ccccc2)C(C)C)cc1 (stereo not drawn) [Compound 63] | < 30 µM
CC(C)C(c1nc2c(oc3ccc(F)cc32)c(=O)n1Cc1ccccc1)N(CCN)C(=O)c1ccc(Cl)cc1 (stereo not drawn) [Compound 64] | < 30 µM
CC(C)C(c1nc2c(oc3ccc(F)cc32)c(=O)n1Cc1ccccc1)N(CCN)C(=O)c1ccc(Br)cc1 (stereo not drawn) [Compound 65] | < 30 µM
CC(C)C(c1nc2c(oc3ccc(F)cc32)c(=O)n1Cc1ccc(Cl)s1)N(CCN)C(=O)c1ccc(Cl)cc1 (stereo not drawn) [Compound 68] | < 30 µM
Cc1ccc(C(=O)N(CCN)C(c2nc3c(oc4ccc(F)cc43)c(=O)n2Cc2cc(Br)cs2)C(C)C)cc1 (stereo not drawn) [Compound 69] | < 30 µM
Cc1ccc(C(=O)N(CCCN)C(c2nc3c(oc4ccc(F)cc43)c(=O)n2Cc2ccc(Br)s2)C(C)C)cc1 (stereo not drawn) [Compound 70] | < 30 µM
Cc1ccc(C(=O)N(CCCN)C(c2nc3c(oc4ccc(F)cc43)c(=O)n2Cc2ccc(Cl)s2)C(C)C)cc1 (stereo not drawn) [Compound 71] | < 30 µM
Cc1ccc(C(=O)N(CCCN)C(c2nc3c(oc4ccc(F)cc43)c(=O)n2Cc2ccc(C#N)s2)C(C)C)cc1 (stereo not drawn) [Compound 72] | < 30 µM
Cc1ccc(C(=O)N(CCCN)C(c2nc3c(oc4ccc(F)cc43)c(=O)n2Cc2cc(Br)cs2)C(C)C)cc1 (stereo not drawn) [Compound 73] | < 30 µM
Cc1ccc(C(=O)N(CCCN)C(c2nc3c(oc4ccc(F)cc43)c(=O)n2Cc2cccs2)C(C)C)cc1 (stereo not drawn) [Compound 74] | < 30 µM
Cc1ccc(C(=O)N(CCN)C(c2nc3c(oc4ccc(F)cc43)c(=O)n2Cc2ccsc2)C(C)C)cc1 (stereo not drawn) [Compound 75] | < 30 µM
Cc1ccc(C(=O)N(CCCN)C(c2nc3c(oc4ccc(F)cc43)c(=O)n2Cc2ccsc2)C(C)C)cc1 (stereo not drawn) [Compound 76] | < 30 µM
Cc1ccc(C(=O)N(CCN)C(c2nc3c(oc4ccc(Cl)cc43)c(=O)n2Cc2ccsc2)C(C)C)cc1 (stereo not drawn) [Compound 77] | < 30 µM
Cc1ccc(C(=O)N(CCCN)C(c2nc3c(oc4ccc(Cl)cc43)c(=O)n2Cc2ccsc2)C(C)C)cc1 (stereo not drawn) [Compound 78] | < 30 µM
Cc1ccc(C(=O)N(CCN)C(c2nc3c(oc4ccc(F)cc43)c(=O)n2Cc2cccc(F)c2)C(C)C)cc1 (stereo not drawn) [Compound 79] | < 30 µM
Cc1ccc(C(=O)N(CCCN)C(c2nc3c(oc4ccc(F)cc43)c(=O)n2Cc2cccc(F)c2)C(C)C)cc1 (stereo not drawn) [Compound 80] | < 30 µM
Cc1ccc(C(=O)N(CCCN)C(c2nc3c(oc4ccc(F)cc43)c(=O)n2Cc2ccc(Br)o2)C(C)C)cc1 (stereo not drawn) [Compound 82] | < 30 µM
Cc1ccc(C(=O)N(CCCN)C(c2nc3c(oc4ccc(F)cc43)c(=O)n2Cc2cc(C)cs2)C(C)C)cc1 (stereo not drawn) [Compound 85] | < 30 µM
Cc1ccc(C(=O)N(CCCN)C(c2nc3c(oc4ccc(F)cc43)c(=O)n2Cc2ccc(C(F)(F)F)o2)C(C)C)cc1 (stereo not drawn) [Compound 87] | < 30 µM
COC(=O)c1ccc(Cn2c(C(C(C)C)N(CCN)C(=O)c3ccc(C)cc3)nc3c(oc4ccc(F)cc43)c2=O)s1 (stereo not drawn) [Compound 88] | < 30 µM
COC(=O)c1ccc(Cn2c(C(C(C)C)N(CCCN)C(=O)c3ccc(C)cc3)nc3c(oc4ccc(F)cc43)c2=O)s1 (stereo not drawn) [Compound 89] | < 30 µM
Cc1ccc(C(=O)N(CCN)C(c2nc3c(oc4ccc(F)cc43)c(=O)n2Cc2ccc(Cl)o2)C(C)C)cc1 (stereo not drawn) [Compound 90] | < 30 µM
Cc1ccc(C(=O)N(CCCN)C(c2nc3c(oc4ccc(F)cc43)c(=O)n2Cc2ccc(Cl)o2)C(C)C)cc1 (stereo not drawn) [Compound 91] | < 30 µM
Cc1ccc(C(=O)N(CCN)C(c2nc3c(oc4ccc(F)cc43)c(=O)n2Cc2cc(Br)co2)C(C)C)cc1 (stereo not drawn) [Compound 92] | < 30 µM
